Assay: solubility
Type: physicochemical
Conditions: Example 37 complexes

Which water solubility does the source give for “D,L-dibenzenesulfonate-(1-benzylethylenediamine)-platinum II [dibenzenesulfonate complexes]” here?
Its water solubility is “good water solubility”.
